Data from US6995143B2, “Macrolides with antibacterial activity” (Basilea Pharmaceutica AG, priority 2002, dated 2006).
≈ marks a conversion by molar mass, not a printed value.

Legend:
Type in all cases: cell-based
[1] = tested on: Haemophilus influenzae QK12/87; experiment: MIC, standard agar dilution method using HTM medium
How it was run: (§1)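 Testing against H. influenzae followed the NCCLS 5th-edition approved standard for antimicrobial dilution tests. The MIC was taken as defined by that guideline.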

[2] = tested on: Haemophilus influenzae 12214; experiment: as above
How it was run: as §1

[3] = tested on: Haemophilus influenzae B1501; experiment: as above
How it was run: as §1

[4] = tested on: Haemophilus influenzae QK50; experiment: as above
How it was run: as §1

[5] = tested on: Staphylococcus aureus 1086; experiment: MIC, standard microdilution technique
How it was run: (§2)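 Values come from dilution susceptibility testing run to the National Committee for Clinical Laboratory Standards guideline M7-A5, the edition covering bacteria that grow aerobically.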

[6] = tested on: Streptococcus pneumoniae ¼; experiment: MIC, standard microdilution technique
How it was run: as §2

[7] = tested on: Streptococcus pneumoniae 12288; experiment: MIC, standard microdilution technique
How it was run: as §2

[8] = tested on: Staphylococcus aureus 745; experiment: MIC, standard microdilution technique
How it was run: as §2

[9] = tested on: Escherichia coli ATCC 25922; experiment: MIC, standard microdilution technique
How it was run: as §2

[10] = tested on: Streptococcus pneumoniae l/l; experiment: MIC, standard microdilution technique
How it was run: as §2

[11] = tested on: Streptococcus pneumoniae SL199T; experiment: MIC, standard microdilution technique
How it was run: as §2

[12] = tested on: Staphylococcus aureus ATCC 29213; experiment: MIC, standard microdilution technique
How it was run: as §2

Row | Compound | minimum inhibitory concentration (MIC), Strain I [1] | minimum inhibitory concentration (MIC), Strain K [2] | minimum inhibitory concentration (MIC), Strain M [3] | minimum inhibitory concentration (MIC), Strain L [4] | minimum inhibitory concentration (MIC), Strain B [5] | minimum inhibitory concentration (MIC), Strain F [6] | minimum inhibitory concentration (MIC), Strain H [7] | minimum inhibitory concentration (MIC), Strain C [8] | minimum inhibitory concentration (MIC), Strain D [9] | minimum inhibitory concentration (MIC), Strain E [10] | minimum inhibitory concentration (MIC), Strain G [11] | minimum inhibitory concentration (MIC), Strain A [12] | further results
1 | CC[C@H]1OC(=O)[C@H](C)C(=O)[C@H](C)[C@@H](O[C@@H]2O[C@H](C)C[C@H](N(C)C)[C@H]2O)[C@](C)(OC)C[C@@H](C)C(=O)[C@H](C)[C@H]2[C@@H](SCCNC(=O)c3ccc(-n4cccn4)nc3)C(=O)O[C@@]21C (single isomer, unassigned) [Example 50] | 8 µg/mL (≈ 9.32 µM) | 16 µg/mL (≈ 18.6 µM) | 4 µg/mL (≈ 4.66 µM) | 8 µg/mL (≈ 9.32 µM) | 0.125 µg/mL (≈ 0.146 µM) | 32 µg/mL (≈ 37.3 µM) | >32 µg/mL | >32 µg/mL | >32 µg/mL | <=0.06 μg/ml | 32 µg/mL (≈ 37.3 µM) | 0.25 µg/mL (≈ 0.291 µM) | –
2 | CC[C@H]1OC(=O)[C@H](C)C(=O)[C@H](C)[C@@H](O[C@@H]2O[C@H](C)C[C@H](N(C)C)[C@H]2O)[C@](C)(OC)C[C@@H](C)C(=O)[C@H](C)[C@H]2[C@@H](SCCC(=O)Nc3ccc4ncccc4c3)C(=O)O[C@@]21C [Example 41] | 8 µg/mL (≈ 9.5 µM) | 8 µg/mL (≈ 9.5 µM) | 8 µg/mL (≈ 9.5 µM) | 16 µg/mL (≈ 19 µM) | <=0.06 μg/ml | 16 µg/mL (≈ 19 µM) | >32 µg/mL | >32 µg/mL | >32 µg/mL | <=0.06 μg/ml | 8 µg/mL (≈ 9.5 µM) | <=0.06 μg/ml | –
3 | CC[C@H]1OC(=O)[C@H](C)C(=O)[C@H](C)[C@@H](O[C@@H]2O[C@H](C)C[C@H](N(C)C)[C@H]2O)[C@](C)(OC)C[C@@H](C)C(=O)[C@H](C)[C@H]2[C@@H](SCCNC(=O)c3cccnc3)C(=O)O[C@@]21C (single isomer, unassigned) [Example 19, (3R or S, 3aR, 4R or S, 6R, 8R, 9R, 10R, 12R, 15R, 15aS) -15-Ethyloctahydro-8-methoxy-4,6,8,10,12,15a-hexamethyl-3-[[2-[(3-pyridinylcarbonyl)amino]ethyl]thio]-9-[[-3,4,6-trideoxy-3-(dimethylamino)-β-D-xylo-hexopyranosyl]oxy]-2H-furo [2,3-c] oxacyclotetradecin-2,5,11,13 (3H,6H,12H)-tetrone] | – | – | – | – | – | – | – | – | – | – | – | – | MIC ([1]; read-out: minimum inhibitory concentration (MIC), Strain I): 4 µg/mL (≈ 5.05 µM); MIC ([2]; read-out: minimum inhibitory concentration (MIC), Strain K): 4 µg/mL (≈ 5.05 µM); MIC ([3]; read-out: minimum inhibitory concentration (MIC), Strain M): 4 µg/mL (≈ 5.05 µM); MIC ([4]; read-out: minimum inhibitory concentration (MIC), Strain L): 8 µg/mL (≈ 10.1 µM); MIC ([5]; read-out: minimum inhibitory concentration (MIC), Strain B): 0.25 µg/mL (≈ 0.316 µM); MIC ([6]; read-out: minimum inhibitory concentration (MIC), Strain F): 2 µg/mL (≈ 2.53 µM); MIC ([7]; read-out: minimum inhibitory concentration (MIC), Strain H): > 32 µg/mL; MIC ([8]; read-out: minimum inhibitory concentration (MIC), Strain C): > 32 µg/mL; MIC ([9]; ATCC25922, read-out: minimum inhibitory concentration (MIC), Strain D): > 32 µg/mL; MIC ([10]; read-out: minimum inhibitory concentration (MIC), Strain E): 0.125 µg/mL (≈ 0.158 µM); MIC ([11]; read-out: minimum inhibitory concentration (MIC), Strain G): 32 µg/mL (≈ 40.4 µM); MIC ([12]; ATCC29213, read-out: minimum inhibitory concentration (MIC), Strain A): 0.25 µg/mL (≈ 0.316 µM)
4 | CC[C@H]1OC(=O)[C@H](C)C(=O)[C@H](C)[C@@H](O[C@@H]2O[C@H](C)C[C@H](N(C)C)[C@H]2O)[C@](C)(OC)C[C@@H](C)C(=O)[C@H](C)[C@H]2[C@@H](S(=O)(=O)CCNC(=O)c3ccc4nonc4c3)C(=O)O[C@@]21C [Example 44] | 16 µg/mL (≈ 18.5 µM) | 16 µg/mL (≈ 18.5 µM) | 8 µg/mL (≈ 9.25 µM) | 16 µg/mL (≈ 18.5 µM) | 0.125 µg/mL (≈ 0.145 µM) | <=0.06 μg/ml | >32 µg/mL | >32 µg/mL | >32 µg/mL | <=0.06 μg/ml | 16 µg/mL (≈ 18.5 µM) | 0.5 µg/mL (≈ 0.578 µM) | –
5 | CC[C@H]1OC(=O)[C@@](C)(F)C(=O)[C@H](C)[C@@H](O[C@@H]2O[C@H](C)C[C@H](N(C)C)[C@H]2O)[C@](C)(OC)C[C@@H](C)C(=O)[C@H](C)[C@H]2[C@@H](SCCCn3cc(-c4ccccc4)cn3)C(=O)O[C@@]21C (single isomer, unassigned) [Example 10] | 32 µg/mL (≈ 37.8 µM) | >32 µg/mL | >32 µg/mL | 32 µg/mL (≈ 37.8 µM) | 0.5 µg/mL (≈ 0.591 µM) | 2 µg/mL (≈ 2.36 µM) | 16 µg/mL (≈ 18.9 µM) | >32 µg/mL | >32 µg/mL | 0.5 µg/mL (≈ 0.591 µM) | 8 µg/mL (≈ 9.46 µM) | 0.5 µg/mL (≈ 0.591 µM) | –
6 | CC[C@H]1OC(=O)[C@H](C)C(=O)[C@H](C)[C@@H](O[C@@H]2O[C@H](C)C[C@H](N(C)C)[C@H]2O)[C@](C)(OC)C[C@@H](C)C(=O)[C@H](C)[C@H]2[C@@H](SCC(=O)Nc3ccc(C)c(C)c3)C(=O)O[C@@]21C [Example 55] | 8 µg/mL (≈ 9.94 µM) | 8 µg/mL (≈ 9.94 µM) | 8 µg/mL (≈ 9.94 µM) | 16 µg/mL (≈ 19.9 µM) | 0.125 µg/mL (≈ 0.155 µM) | <=0.06 μg/ml | 2 µg/mL (≈ 2.48 µM) | >32 µg/mL | >32 µg/mL | <=0.06 μg/ml | 0.25 µg/mL (≈ 0.311 µM) | 0.25 µg/mL (≈ 0.311 µM) | –
7 | CC[C@H]1OC(=O)[C@@](C)(F)C(=O)[C@H](C)[C@@H](O[C@@H]2O[C@H](C)C[C@H](N(C)C)[C@H]2O)[C@](C)(OC)C[C@@H](C)C(=O)[C@H](C)[C@H]2[C@@H](SCCn3cnc4c(N)ncnc43)C(=O)O[C@@]21C (single isomer, unassigned) [Example 56] | 1 µg/mL (≈ 1.22 µM) | 1 µg/mL (≈ 1.22 µM) | 0.5 µg/mL (≈ 0.608 µM) | 0.5 µg/mL (≈ 0.608 µM) | <=0.06 μg/ml | <=0.06 μg/ml | 1 µg/mL (≈ 1.22 µM) | >32 µg/mL | 32 µg/mL (≈ 38.9 µM) | <=0.06 μg/ml | <=0.06 μg/ml | <=0.06 μg/ml | –
8 | CC[C@H]1OC(=O)[C@H](C)C(=O)[C@H](C)[C@@H](O[C@@H]2O[C@H](C)C[C@H](N(C)C)[C@H]2O)[C@](C)(OC)C[C@@H](C)C(=O)[C@H](C)[C@H]2[C@@H](SSc3ncccc3[N+](=O)[O-])C(=O)O[C@@]21C (single isomer, unassigned) [Example 3] | >32 µg/mL | >32 µg/mL | >32 µg/mL | >32 µg/mL | 2 µg/mL (≈ 2.51 µM) | 16 µg/mL (≈ 20.1 µM) | >32 µg/mL | >32 µg/mL | >32 µg/mL | <=0.06 μg/ml | 32 µg/mL (≈ 40.1 µM) | 2 µg/mL (≈ 2.51 µM) | –
9 | (3R or S, 3aR, 4R or S, 6R, 8R, 9R, 10R, 12S, 15R, 15aS) -3-[[3-[6-Amino-9H-purine-9-yl]propyl]thio]-15-ethyl-12-fluorooctahydro-8-methoxy-4,6,8,10,12,15a-hexamethyl-3-9-[[3,4,6-trideoxy-3-(dimethylamino)-β-D-xylo-hexopyranosyl]oxy]-2H-furo [2,3-c] oxacyclotetradecin-2,5,11,13 (3H,6H,12H)-tetrone [Example 13] | 2 µg/mL | 2 µg/mL | 2 µg/mL | 2 µg/mL | <=0.06 μg/ml | <=0.06 μg/ml | 0.25 µg/mL | >32 µg/mL | 32 µg/mL | <=0.06 μg/ml | <=0.06 μg/ml | <=0.06 μg/ml | –
